Entries after “also recorded” stand apart in the source; their conditions may differ.

Holding throughout (format): physicochemical
A short description of data set [1]: Dynamic vapor sorption (DVS) isotherm, hygroscopicity. The conditions noted are these: for Hygroscopicity / form change after DVS: salts or cocrystals of Compound 1; for Hygroscopicity: DVS isotherm at 25° C.; for water uptake, adsorption isotherm / water uptake, desorption isotherm: 80% relative humidity, 25° C.; for Hygroscopicity/purity decrease: MC3 and MC3 trimesate, water uptake up to 80% RH at 25° C.; for form change after DVS: XRPD before and after DVS test at 25° C. Here is the method: DVS was measured on via a SMS (Surface Measurement Systems) DVS Intrinsic. The relative humidity at 25° C. were calibrated against deliquescence point of LiCl, Mg(NO3)2 and KCl.

A short description of the next data set: free base pKa.
Data set [2] in a line: HPLC purity before and after the DVS experiment. The conditions noted are these: samples prepared with crude and purified free base. Here is the method: Trimesate Type A samples were prepared according to the procedure described in the foregoing, using the crude free base (HPLC purity of 88.5 area %) or purified free base (HPLC purity of 97.6 area %) as starting material, and analyzed by HPLC.

Where [3] appears, read: listed as 4-hydroxybenzoate Polymorph A.
[4] abbreviates: listed as trimellitate Polymorph A.

For the molecule “heptadecan-9-yl 8-((2-hydroxyethyl)amino)octanoate orotate [Orotate Polymorph B]”, in data set [1], the Hygroscopicity result is recorded as “slightly hygroscopic; also recorded: Hygroscopic”.

Usually pKa stands for the pH at which an ionisable group is half protonated. Turning to `CCCCC/C=C\C/C=C\CCCCCCCCC(CCCCCCCC/C=C\C/C=C\CCCCC)OC(=O)CCCN(C)C` [MC3, (6Z,9Z,28Z,31Z)-heptatriaconta-6,9,28,31-tetraen-19-yl 4-(dimethylamino)butanoate, reference compound], the pKa in the data set “free base pKa” is greater than 8. Besides, in data set [1] (listed as crude free base), the “water uptake, adsorption isotherm” value is given as 0.24%; the “water uptake, desorption isotherm” value is 0.27%; the Hygroscopicity/purity decrease entry is given as “slightly hygroscopic”. Also, in data set [1] (listed as pure free base), the “water uptake, adsorption isotherm” value stood at 0.14% and the “water uptake, desorption isotherm” value was found to be 0.17%.

“heptadecan-9-yl 8-((2-hydroxyethyl)amino)octanoate 4-hydroxybenzoate [4-Hydroxybenzoate Polymorph A]”: the Hygroscopicity result in data set [1] was “Non-hygroscopic”; in data set [1] (setting [3]), “non-hygroscopic”; in data set [1] (listed as 4-hydroxybenzoate of Compound 1), “non-hygroscopic”; in data set [1] (listed as Polymorph A of 4-hydroxybenzoate of Compound 1) it was “low hygroscopicity”. In addition, the entries for the “form change after DVS” value in data set [1] and in data set [1] (setting [3]) were “(no)” and “no form change”, respectively.

Consider “heptadecan-9-yl 8-((2-hydroxyethyl)amino)octanoate trimellitate [Trimellitate Polymorph A]”, for which, in data set [1], the Hygroscopicity result is recorded as “Slightly hygroscopic” and the “form change after DVS” value is reported as “(no)”. In data set [1] (setting [4]), the Hygroscopicity result is listed as “slightly hygroscopic” and the “form change after DVS” value was “no form change”.

For “(6Z,9Z,28Z,31Z)-heptatriaconta-6,9,28,31-tetraen-19-yl 4-(dimethylamino)butanoate trimesate [Trimesate Type A]”, the Hygroscopicity/purity decrease entry in data set [1] is given as “Non-hygroscopic”; in data set [1] (listed as trimesate Type A), “non-hygroscopic (Hygroscopicity concluded using the water uptake up to 80% RH at 25° C.: < 0.2% for non-hygroscopic)”; in data set [1] (listed as trimesate of MC3), “non-hygroscopic (Hygroscopicity concluded using the water uptake up to 80% RH at 25° C.: < 0.2% for non-hygroscopic)”. In data set [2], the “HPLC purity change after the DVS experiment” value was “No significant HPLC purity change”.
